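Step 1: Grow cells in 96-well plates. Step 2: Expose to compound for 48 hours at 5 concentrations. Step 3: Interpolate endpoints linearly; if unreached, use highest concentration. GI50 marks 50% less growth.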 Calls of active or inactive are those of the source. Rule as the data show it: active = GI50 up to about 1.1 µM and inactive = higher.
Assays:
Experiment in all cases: NCI anticancer screen, dose series, 48 h
[1] = system: 786-0
[2] = system: CAKI-1
[3] = system: CCRF-CEM
[4] = system: COLO 205
[5] = system: HCC 2998
[6] = system: HOP-18
[7] = system: HOP-92
[8] = system: KM12
[9] = system: LOX IMVI
[10] = system: Malme-3M
[11] = system: OVCAR-4
[12] = system: RPMI-8226
[13] = system: RXF 393
[14] = system: SK-OV-3
[15] = system: SNB-19
[16] = system: UACC-257
[17] = system: MDA-MB-435
[18] = system: MDA-N
[19] = system: NCI/ADR-RES
[20] = system: T47D

Measured: GI50

CN1C(=O)n2c(nc3ccccc32)C(N=[N+]=[N-])(N=[N+]=[N-])C1=O (stereo not given)
inactive: [1] > 100 µM | [2] 35.2 µM | [3] 68.9 µM | [4] > 100 µM | [5] > 100 µM | [6] > 100 µM | [7] 86.5 µM | [8] > 100 µM | [9] 77.3 µM | [10] > 100 µM | [11] > 100 µM | [12] > 100 µM | [13] > 100 µM | [14] > 100 µM | [15] > 100 µM | [16] > 100 µM

Cc1cc2c(cc1Br)C1(C)CCC(C)C1(C)O2 (stereo not given)
inactive: [1] 23.1 µM | [2] 56 µM | [3] 22.1 µM | [4] 16.3 µM | [5] 43 µM | [6] 30.1 µM | [7] 20.9 µM | [8] 31.6 µM | [9] 18.6 µM | [10] 16.9 µM | [11] 39.8 µM | [12] 14 µM | [13] 15.7 µM | [14] 53.3 µM | [15] 36 µM | [16] 30.5 µM

O=C(Nc1sccc1S(=O)(=O)c1ccc(Cl)cc1)c1ccc(F)cc1F
inactive: [1] 18.7 µM | [2] 26.2 µM | [3] 19.2 µM | [4] > 100 µM | [5] > 100 µM | [7] 19.5 µM | [8] > 100 µM | [9] > 100 µM | [17] > 100 µM | [18] > 100 µM | [10] 31.9 µM | [19] 32.3 µM | [11] 21.2 µM | [12] 62.8 µM | [13] 21.7 µM | [14] 21.9 µM | [15] 21.9 µM | [20] 31.8 µM | [16] > 100 µM

COc1c2nc(CCl)[nH]c(=O)c2c(OC)c2nc(CCl)[nH]c(=O)c12
inactive: [1] > 100 µM | [2] > 100 µM | [3] > 100 µM | [4] > 100 µM | [6] > 100 µM | [7] > 100 µM | [8] > 100 µM | [9] > 100 µM | [10] > 100 µM | [11] > 100 µM | [12] > 100 µM | [13] > 100 µM | [14] > 100 µM | [15] > 100 µM | [16] > 100 µM

O=C1c2ccoc2C(=O)c2oc(=O)ccc21
inactive: [1] 16.8 µM | [2] > 45 µM | [3] 5.57 µM | [4] > 41.2 µM | [5] > 45.3 µM | [6] 21.6 µM | [7] 21.6 µM | [8] > 42 µM | [9] 2.88 µM | [10] 3.16 µM | [11] 5.13 µM | [12] 3.67 µM | [13] 5.86 µM | [14] 30.1 µM | [15] 16 µM | [16] 7.33 µM

COc1ccc2c3c(coc13)C(CCC(=O)O)CC2 (stereo not given)
inactive: [1] > 100 µM | [2] 38.7 µM | [4] > 100 µM | [5] > 100 µM | [6] 88.5 µM | [9] > 100 µM | [11] > 100 µM | [13] > 100 µM | [14] > 100 µM | [15] > 100 µM | [16] > 100 µM

CCOC1c2nc3ccccc3nc2-c2ccccc2N1C(C)=O (stereo not given)
inactive: [1] 56.8 µM | [2] > 100 µM | [3] > 100 µM | [4] > 100 µM | [5] > 100 µM | [6] 51.6 µM | [7] 29.2 µM | [8] > 100 µM | [11] 74.6 µM | [12] > 100 µM | [13] 28.3 µM | [14] > 100 µM | [15] > 100 µM | [16] > 100 µM

CCC(=O)C1=C(OC(C)=O)C2Cc3c(n(C)c4ccccc34)C(C1)N2C (stereo not given)
inactive: [1] 22.2 µM | [2] 33.7 µM | [3] 27 µM | [4] 34 µM | [5] 38 µM | [6] 25.4 µM | [7] 67 µM | [8] 45.9 µM | [9] 40.5 µM | [10] 48.6 µM | [11] 28.4 µM | [14] > 100 µM | [15] > 100 µM | [16] 24.5 µM

CC(C)(Oc1ccc(/C=C/C(=O)c2ccc(Cl)cc2)cc1)C(=O)Nc1c(Cl)cccc1Cl
inactive: [1] 19.6 µM | [2] 23.7 µM | [4] 17.8 µM | [5] 25.4 µM | [6] 80.4 µM | [7] 15.7 µM | [8] 11.8 µM | [9] 16 µM | [10] 19.7 µM | [11] 23.4 µM | [13] 20.6 µM | [14] 34 µM | [15] 33.8 µM | [16] 30.9 µM
